Experimental findings from patent US20250304596A1, “PYRAZINE DERIVATIVES AND USES THEREOF” (FOGHORN THERAPEUTICS INC., priority 2022, published 2025) are described below.

Test [1] deals with T1, HiBit-BRG1 fusion protein (Homo sapiens, UniProt P51532).
T1 construct: expressed in transfected cells
Kind of test: HiBiT-BRG1 cell-based degradation assay (Nano-Glo HiBiT Lytic Detection, 24 h). The note with it: stable HeLa cell line expressing HiBit-BRG1 and LgBit; for Dmax: read-out: BRG1 HiBit Degradation Maximum (%); for DC50: read-out: BRMG1 HiBit Degradation IC50. In outline:
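HeLa cells stably expressing HiBit-BRG1 and LgBit, treated 24 h with 3-fold dilutions (10 points, duplicate, 30 μM final top dose). Luminescence read after Nano-Glo HiBiT lytic reagent; % degradation scaled between DMSO (high) and 2 μM reference BRM/BRG1 degrader (low control).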
For orientation: HiBiT is a short tag that completes a luciferase, so light tracks the accessible tagged protein.

For the next test, the target named is T2, HiBit-BRM fusion protein (Homo sapiens, UniProt P51531).
T2 construct: expressed in transfected cells
T2 sequence (P51531 whole entry, the tested form may be a part): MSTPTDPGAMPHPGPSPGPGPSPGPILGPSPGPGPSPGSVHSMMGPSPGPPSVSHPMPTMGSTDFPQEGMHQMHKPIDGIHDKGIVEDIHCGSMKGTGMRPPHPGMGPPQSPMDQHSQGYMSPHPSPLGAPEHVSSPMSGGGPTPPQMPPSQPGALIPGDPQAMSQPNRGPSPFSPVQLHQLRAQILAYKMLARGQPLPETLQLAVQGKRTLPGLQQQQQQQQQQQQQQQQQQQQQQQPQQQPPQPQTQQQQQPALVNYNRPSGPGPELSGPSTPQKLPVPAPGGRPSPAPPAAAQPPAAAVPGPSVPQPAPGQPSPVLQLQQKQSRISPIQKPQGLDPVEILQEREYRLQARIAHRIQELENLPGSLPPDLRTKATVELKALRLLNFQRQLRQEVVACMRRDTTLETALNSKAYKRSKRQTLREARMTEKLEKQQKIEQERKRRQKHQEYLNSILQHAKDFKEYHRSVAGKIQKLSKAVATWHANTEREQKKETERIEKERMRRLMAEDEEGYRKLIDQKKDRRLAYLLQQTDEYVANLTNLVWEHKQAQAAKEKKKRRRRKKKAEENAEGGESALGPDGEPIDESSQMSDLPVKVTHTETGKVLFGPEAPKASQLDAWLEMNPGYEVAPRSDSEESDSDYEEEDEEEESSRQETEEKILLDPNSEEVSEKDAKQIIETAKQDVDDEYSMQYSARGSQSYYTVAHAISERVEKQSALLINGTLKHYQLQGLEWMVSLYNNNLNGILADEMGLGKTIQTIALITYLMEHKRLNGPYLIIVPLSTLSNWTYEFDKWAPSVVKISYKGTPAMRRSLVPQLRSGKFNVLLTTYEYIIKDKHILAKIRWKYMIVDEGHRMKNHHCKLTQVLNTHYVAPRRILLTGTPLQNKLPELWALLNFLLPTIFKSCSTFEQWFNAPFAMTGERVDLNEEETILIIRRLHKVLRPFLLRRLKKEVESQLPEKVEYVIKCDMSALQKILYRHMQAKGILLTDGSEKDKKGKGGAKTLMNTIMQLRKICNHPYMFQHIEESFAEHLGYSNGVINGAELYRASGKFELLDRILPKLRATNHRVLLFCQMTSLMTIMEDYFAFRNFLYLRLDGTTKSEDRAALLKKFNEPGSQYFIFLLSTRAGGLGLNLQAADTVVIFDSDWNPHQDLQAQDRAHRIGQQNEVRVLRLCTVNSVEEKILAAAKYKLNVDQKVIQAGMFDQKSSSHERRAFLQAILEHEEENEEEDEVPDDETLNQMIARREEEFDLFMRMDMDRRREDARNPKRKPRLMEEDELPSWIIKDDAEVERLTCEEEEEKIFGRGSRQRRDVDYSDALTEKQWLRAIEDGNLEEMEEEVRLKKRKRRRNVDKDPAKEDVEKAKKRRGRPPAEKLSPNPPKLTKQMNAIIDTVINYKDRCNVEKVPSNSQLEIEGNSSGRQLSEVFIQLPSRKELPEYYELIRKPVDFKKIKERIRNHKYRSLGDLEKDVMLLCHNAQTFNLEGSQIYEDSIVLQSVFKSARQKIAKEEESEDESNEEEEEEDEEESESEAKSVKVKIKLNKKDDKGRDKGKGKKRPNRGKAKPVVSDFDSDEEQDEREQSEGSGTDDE
Kind of test: HiBiT-BRM cell-based degradation assay (Nano-Glo HiBiT Lytic Detection, 24 h). The note with it: stable HeLa cell line expressing HiBiT-BRM; for DC50: read-out: BRM HiBit Degradation IC50. The procedure, abridged: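 A stable HeLa line expressing HiBiT-BRM was treated for 24 h with compound in a 10-point, 3-fold series (30 μM final top dose). Remaining HiBiT-BRM was read by lytic LgBiT complementation luminescence. % degradation was normalised to DMSO (high control) and 2 μM reference BRM/BRG1 degrader (low control).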

T1 sequence (P51532 whole entry, the tested form may be a part): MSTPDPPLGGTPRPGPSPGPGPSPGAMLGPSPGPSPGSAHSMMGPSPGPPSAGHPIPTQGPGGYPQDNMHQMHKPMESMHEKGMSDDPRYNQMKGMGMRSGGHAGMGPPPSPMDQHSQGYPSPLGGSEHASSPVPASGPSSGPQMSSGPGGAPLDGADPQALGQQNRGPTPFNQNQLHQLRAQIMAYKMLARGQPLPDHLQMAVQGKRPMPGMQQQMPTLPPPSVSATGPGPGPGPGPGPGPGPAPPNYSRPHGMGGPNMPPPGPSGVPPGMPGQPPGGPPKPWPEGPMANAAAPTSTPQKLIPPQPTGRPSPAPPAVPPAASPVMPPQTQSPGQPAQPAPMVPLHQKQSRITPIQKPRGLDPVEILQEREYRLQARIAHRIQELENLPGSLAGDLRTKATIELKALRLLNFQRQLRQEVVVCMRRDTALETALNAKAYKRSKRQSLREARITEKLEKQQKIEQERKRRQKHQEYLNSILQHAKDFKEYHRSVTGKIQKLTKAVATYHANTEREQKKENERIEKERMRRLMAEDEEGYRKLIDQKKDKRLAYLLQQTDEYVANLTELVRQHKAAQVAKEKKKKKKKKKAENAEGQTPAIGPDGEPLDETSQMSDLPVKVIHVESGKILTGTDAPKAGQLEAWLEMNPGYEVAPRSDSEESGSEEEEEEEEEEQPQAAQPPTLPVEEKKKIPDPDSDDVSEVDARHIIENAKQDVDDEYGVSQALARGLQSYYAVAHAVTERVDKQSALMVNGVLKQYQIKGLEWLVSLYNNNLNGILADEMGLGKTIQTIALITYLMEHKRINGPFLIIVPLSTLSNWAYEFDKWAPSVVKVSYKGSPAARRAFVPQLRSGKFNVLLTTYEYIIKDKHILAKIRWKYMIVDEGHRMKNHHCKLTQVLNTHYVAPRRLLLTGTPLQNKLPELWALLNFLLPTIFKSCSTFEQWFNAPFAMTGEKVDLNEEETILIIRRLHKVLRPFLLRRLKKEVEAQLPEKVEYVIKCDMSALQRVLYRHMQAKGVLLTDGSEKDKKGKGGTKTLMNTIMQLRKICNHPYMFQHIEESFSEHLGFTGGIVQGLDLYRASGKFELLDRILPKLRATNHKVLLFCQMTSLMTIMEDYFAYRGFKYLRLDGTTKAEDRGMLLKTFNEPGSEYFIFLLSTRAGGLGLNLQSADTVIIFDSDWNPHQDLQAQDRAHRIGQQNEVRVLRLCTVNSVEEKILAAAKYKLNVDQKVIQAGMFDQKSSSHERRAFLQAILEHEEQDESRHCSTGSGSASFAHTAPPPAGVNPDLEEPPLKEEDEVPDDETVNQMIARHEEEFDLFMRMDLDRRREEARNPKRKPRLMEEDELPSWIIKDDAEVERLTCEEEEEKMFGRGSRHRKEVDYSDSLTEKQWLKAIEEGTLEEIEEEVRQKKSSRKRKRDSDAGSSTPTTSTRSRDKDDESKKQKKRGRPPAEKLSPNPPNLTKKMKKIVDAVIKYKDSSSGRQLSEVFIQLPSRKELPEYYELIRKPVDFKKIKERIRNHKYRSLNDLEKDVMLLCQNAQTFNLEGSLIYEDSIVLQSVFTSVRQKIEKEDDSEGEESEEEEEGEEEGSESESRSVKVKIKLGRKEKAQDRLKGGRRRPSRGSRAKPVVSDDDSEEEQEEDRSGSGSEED

In the case of `Cc1ncsc1-c1ccc([C@H](C)NC(=O)[C@@H]2C[C@@H](O)CN2C(=O)[C@@H](c2cc(C#Cc3sc4nnc(-c5ccccc5O)cc4c3C)no2)C(C)C)cc1` (single isomer, unassigned) [Compound 37], in test [1], the Dmax is over 50% and the DC50 is over 1000 nM. Moreover, at HiBit-BRM fusion protein, the “BRM HiBit Degradation Maximum (%)” value is given as “A (“A” indicates maximum degradation ≥75%)” and the DC50 is over 100 nM.

`Cc1ncsc1-c1ccc([C@H](C)NC(=O)[C@@H]2C[C@@H](O)CN2C(=O)[C@@H](c2cc(-c3cnc(N4CC[C@@H](c5cc6cc(-c7ccccc7O)nnc6s5)C4)nc3)no2)C(C)C)cc1` (single isomer, unassigned) [Compound 5]: in test [1], the Dmax is under 50% and the DC50 is over 1000 nM. On HiBit-BRM fusion protein, the “BRM HiBit Degradation Maximum (%)” value is listed as “A (“A” indicates maximum degradation ≥75%)” and the DC50 is under 10 nM.

Turning to `Cc1ncsc1-c1ccc([C@H](C)NC(=O)[C@@H]2C[C@@H](O)CN2C(=O)[C@@H](c2cc(-c3ccc(N4CCC(c5sc6nnc(-c7ccccc7O)cc6c5C)CC4)cc3)no2)C(C)C)cc1` [Compound 26, (2S,4R)-4-hydroxy-1-((R)-2-(3-(4-(4-(3-(2-hydroxyphenyl)-5-methylthieno[2,3-c]pyridazin-6-yl)piperidin-1-yl)phenyl)isoxazol-5-yl)-3-methylbutanoyl)-N-((S)-1-(4-(4-methylthiazol-5-yl)phenyl)ethyl)pyrrolidine-2-carboxamide], in test [1], the Dmax is under 50% and the DC50 was over 1000 nM. Also, on HiBit-BRM fusion protein, the “BRM HiBit Degradation Maximum (%)” value is “A (“A” indicates maximum degradation ≥75%)” and the DC50 was under 10 nM.

With `Cc1ncsc1-c1ccc([C@H](C)NC(=O)[C@@H]2C[C@@H](O)CN2C(=O)[C@@H](c2cc(-c3cnc(N4CC[C@@H](c5sc6nnc(-c7ccccc7O)cc6c5C5CC5)C4)nc3)no2)C(C)C)cc1` [Compound 75, (2S,4R)-1-((R)-2-(3-(2-((R)-3-(5-cyclopropyl-3-(2-hydroxyphenyl)thieno [2,3-c]pyridazin-6-yl)pyrrolidin-1-yl)pyrimidin-5-yl)isoxazol-5-yl)-3-methylbutanoyl)-4-hydroxy-N-((S)-1-(4-(4-methylthiazol-5-yl)phenyl)ethyl)pyrrolidine-2-carboxamide], the Dmax in test [1] is under 50%. At HiBit-BRM fusion protein, the “BRM HiBit Degradation Maximum (%)” value is recorded as “B (“B” indicates maximum degradation ≥50%)” and the DC50 was over 10 nM.

As for `Cc1nc(N2CCC(c3sc4nnc(-c5ccccc5O)cc4c3C)CC2)ccc1-c1cc([C@H](C(=O)N2C[C@H](O)C[C@H]2C(=O)N[C@@H](C)c2ccc(-c3scnc3C)cc2)C(C)C)on1` [Compound 42, (2S,4R)-4-hydroxy-1-((R)-2-(3-(6-(4-(3-(2-hydroxyphenyl)-5-methylthieno[2,3-c]pyridazin-6-yl)piperidin-1-yl)-2-methylpyridin-3-yl)isoxazol-5-yl)-3-methylbutanoyl)-N-((S)-1-(4-(4-methylthiazol-5-yl)phenyl)ethyl)pyrrolidine-2-carboxamide], in test [1], the Dmax was over 50% and the DC50 is over 10 nM. Moreover, on HiBit-BRM fusion protein, the “BRM HiBit Degradation Maximum (%)” value is on record as “A (“A” indicates maximum degradation ≥75%)” and the DC50 is under 10 nM.

Turning to `Cc1ncsc1-c1ccc([C@H](C)NC(=O)[C@@H]2C[C@@H](O)CN2C(=O)[C@@H](c2cc(C3CCN(c4ncc(-c5sc6nnc(-c7ccccc7O)cc6c5C)cn4)CC3)no2)C(C)C)cc1` [Compound 32, (2S,4R)-4-hydroxy-1-((R)-2-(3-(1-(5-(3-(2-hydroxyphenyl)-5-methylthieno[2,3-c]pyridazin-6-yl)pyrimidin-2-yl)piperidin-4-yl)isoxazol-5-yl)-3-methylbutanoyl)-N-((S)-1-(4-(4-methylthiazol-5-yl)phenyl)ethyl)pyrrolidine-2-carboxamide], in test [1], the Dmax is under 50% and the DC50 is over 1000 nM. Also, on HiBit-BRM fusion protein, the “BRM HiBit Degradation Maximum (%)” value was “C (“C” indicates maximum degradation <50%)” and the DC50 was over 1000 nM.

Regarding `Cc1ncsc1-c1ccc([C@H](C)NC(=O)[C@@H]2C[C@@H](O)CN2C(=O)[C@@H](c2cc(N3CCC(c4sc5nnc(-c6ccccc6O)cc5c4C)CC3)no2)C(C)C)cc1` [Compound 56, (2S,4R)-4-hydroxy-1-((R)-2-(3-(4-(3-(2-hydroxyphenyl)-5-methylthieno[2,3-c]pyridazin-6-yl)piperidin-1-yl)isoxazol-5-yl)-3-methylbutanoyl)-N-((S)-1-(4-(4-methylthiazol-5-yl)phenyl)ethyl)pyrrolidine-2-carboxamide], in test [1], the Dmax was under 50% and the DC50 was over 1000 nM. In addition, at HiBit-BRM fusion protein, the “BRM HiBit Degradation Maximum (%)” value is listed as “B (“B” indicates maximum degradation ≥50%)” and the DC50 was over 10 nM.

For `Cc1ncsc1-c1ccc([C@H](C)NC(=O)[C@@H]2C[C@@H](O)CN2C(=O)[C@@H](c2cc(-c3cnc(N4C[C@H]5C[C@@H](C4)[C@@H]5c4cc5cc(-c6ccccc6O)nnc5s4)nc3)no2)C(C)C)cc1` [Compound 18, (2S,4R)-4-hydroxy-1-((R)-2-(3-(2-((1R,5S,6R)-6-(3-(2-hydroxyphenyl)thieno[2,3-c]pyridazin-6-yl)-3-azabicyclo[3.1.1]heptan-3-yl)pyrimidin-5-yl)isoxazol-5-yl)-3-methylbutanoyl)-N-((S)-1-(4-(4-methylthiazol-5-yl)phenyl)ethyl)pyrrolidine-2-carboxamide], in test [1], the Dmax was under 50% and the DC50 is over 1000 nM. At HiBit-BRM fusion protein, the “BRM HiBit Degradation Maximum (%)” value is “A (“A” indicates maximum degradation ≥75%)” and the DC50 is under 10 nM.

With `Cc1ncsc1-c1ccc([C@H](C)NC(=O)[C@@H]2C[C@@H](O)CN2C(=O)[C@@H](c2cc(-c3cnc(N4CCC(c5sc6nnc(-c7ccccc7O)cc6c5C)CC4)cn3)no2)C(C)C)cc1` [Compound 28, (2S,4R)-4-hydroxy-1-((R)-2-(3-(5-(4-(3-(2-hydroxyphenyl)-5-methylthieno[2,3-c]pyridazin-6-yl)piperidin-1-yl)pyrazin-2-yl)isoxazol-5-yl)-3-methylbutanoyl)-N-((S)-1-(4-(4-methylthiazol-5-yl)phenyl)ethyl)pyrrolidine-2-carboxamide], in test [1], the Dmax was under 50% and the DC50 is over 1000 nM. For the same compound, on HiBit-BRM fusion protein, the “BRM HiBit Degradation Maximum (%)” value was “A (“A” indicates maximum degradation ≥75%)” and the DC50 is under 10 nM.

Take `Cc1cc(N2CC[C@@H](c3sc4nnc(-c5ccccc5O)cc4c3C)C2)ncc1-c1cc([C@H](C(=O)N2C[C@H](O)C[C@H]2C(=O)N[C@@H](C)c2ccc(-c3scnc3C)cc2)C(C)C)on1` [Compound 96, (2S,4R)-4-hydroxy-1-((R)-2-(3-(6-((R)-3-(3-(2-hydroxyphenyl)-5-methylthieno[2,3-c]pyridazin-6-yl)pyrrolidin-1-yl)-4-methylpyridin-3-yl)isoxazol-5-yl)-3-methylbutanoyl)-N-((S)-1-(4-(4-methylthiazol-5-yl)phenyl)ethyl)pyrrolidine-2-carboxamide]: the Dmax in test [1] is under 50%. On HiBit-BRM fusion protein, the “BRM HiBit Degradation Maximum (%)” value is on record as “B (“B” indicates maximum degradation ≥50%)” and the DC50 was over 10 nM.

Turning to `Cc1ncsc1-c1ccc([C@H](C)NC(=O)[C@@H]2C[C@@H](O)CN2C(=O)[C@@H](c2cc(-c3ccnc(N4CC[C@@H](c5sc6nnc(-c7ccccc7O)cc6c5C)C4)n3)no2)C(C)C)cc1` [Compound 7, (2S,4R)-4-hydroxy-1-((R)-2-(3-(2-((R)-3-(3-(2-hydroxyphenyl)-5-methylthieno[2,3-c]pyridazin-6-yl)pyrrolidin-1-yl)pyrimidin-4-yl)isoxazol-5-yl)-3-methylbutanoyl)-N-((S)-1-(4-(4-methylthiazol-5-yl)phenyl)ethyl)pyrrolidine-2-carboxamide], in test [1], the Dmax is under 50% and the DC50 is over 1000 nM. Also, on HiBit-BRM fusion protein, the “BRM HiBit Degradation Maximum (%)” value is recorded as “C (“C” indicates maximum degradation <50%)” and the DC50 was over 1000 nM.

Regarding `Cc1ncsc1-c1ccc([C@H](C)NC(=O)[C@@H]2C[C@@H](O)CN2C(=O)[C@@H](c2cc(N3CC[C@@H](c4sc5nnc(-c6ccccc6O)cc5c4C)C3)no2)C(C)C)cc1` [Compound 74, (2S,4R)-4-hydroxy-1-((R)-2-(3-((R)-3-(3-(2-hydroxyphenyl)-5-methylthieno[2,3-c]pyridazin-6-yl)pyrrolidin-1-yl)isoxazol-5-yl)-3-methylbutanoyl)-N-((S)-1-(4-(4-methylthiazol-5-yl)phenyl)ethyl)pyrrolidine-2-carboxamide], in test [1], the Dmax was over 50% and the DC50 was over 10 nM. On HiBit-BRM fusion protein, the “BRM HiBit Degradation Maximum (%)” value is “A (“A” indicates maximum degradation ≥75%)” and the DC50 is under 10 nM.

As for `Cc1ncsc1-c1ccc([C@H](C)NC(=O)[C@@H]2C[C@@H](O)CN2C(=O)[C@@H](c2cc(N3CC4(C3)CN(c3sc5nnc(-c6ccccc6O)cc5c3C3CC3)C4)no2)C(C)C)cc1` [Compound 71, (2S,4R)-1-((R)-2-(3-(6-(5-cyclopropyl-3-(2-hydroxyphenyl)thieno[2,3-c]pyridazin-6-yl)-2,6-diazaspiro[3.3]heptan-2-yl)isoxazol-5-yl)-3-methylbutanoyl)-4-hydroxy-N—((S)-1-(4-(4-methylthiazol-5-yl)phenyl)ethyl)pyrrolidine-2-carboxamide], the Dmax in test [1] was under 50%. Further, at HiBit-BRM fusion protein, the “BRM HiBit Degradation Maximum (%)” value was “A (“A” indicates maximum degradation ≥75%)” and the DC50 is under 10 nM.
